In US20050070570A1, “Novel potassium channels modulators” (4SC AG, priority 2003, published 2005):

Target: BK channels (CHO cells permanently transfected with cloned hSlo, α-hSlo and β-bSlo) (Homo sapiens, UniProt Q12791)
Experiment: Em-Assay: fluorescence membrane potential assay with voltage sensitive dye DiBAC(4)3
Format: cell-based
Details: ratio of the compound effect (50 μM) compared to the maximal effect of NS004 (25 or 50 μM)
Description: The large conductance, voltage-dependent and Ca^2+-activated potassium channel BK is a potassium selective ion channel and belongs to the subfamily of KCa channels. Four BK alpha-subunits form a functional channel that can be regulated by intracellular Ca^2+ concentration, membrane voltage, and other mechanisms like phosphorylation states or beta subunits. To test the biological activity of the compounds, we applied two different techniques, a fluorescence based assay using a voltage sensitive dye (Em-Assay) as well as exploiting electrophysiological methods.
CHO cells permanently transfected with cloned hSlo (α-hSlo and β-bSlo), yielding typical BK potassium currents (Zhou et al., Pflügers Arch., 436: 725-734 (1998), were used for the evaluation of compound activity. Activation or inhibition of BK channels in these cells leads to a change of the electrochemical gradient causing a hyperpolarized or depolarised membrane potential, respectively.
To determine changes in the membrane potential of the cells we used the voltage sensitive dye DiBaC(4)3 (Molecular Probes) in a kinetic assay system using a fluorescent plate reader (Manning and Sontheimer, J. Neurosci. Meth., 91: 73-81 (1999). The anionic bis-oxonol DiBAC(4)3 is a voltage sensitive dye which partitions from the extracellular environment into the cell where it reversibly binds to intracellular proteins, a kinetic process depending on the membrane potential of the cell. At depolarised potentials (i.e. at a reduced K^+ efflux due to blocked K^+ channels) the dye accumulates in the cell leading to an increased fluorescence intensity, due to its increased fluorescence if bound to cellular proteins. At hyperpolarized potentials (i.e. at an increased K^+ efflux due to the opening of K^+ channels), the dye partitions out of the cell causing a decreased fluorescence intensity.
hslo transfected CHO cells where maintained in DMEM supplemented with 10% FCS, 250 μg/ml Geneticin, 100 μg/m Hygromycin, 1×HT-Supplement, and 1×Non-essential Amino Acids and cultured in a humidified CO2 incubator. After trypsination, cells where plated with a density of 5×10^4 cells per well on a clear 96-well plate and incubated for 24 h. Cells where washed once with PBS, once with PBS containing 20 mM HEPES (adjusted to pH 7.4 with NaOH) and 2 μM DiBAC(4)3 (DPBS-DiBAC solution). 180 μl of the dPBS-DiBAC solution was then added to the cells and the plate incubated for 30-60 min at 37° C. During this time the dye could partition into the cells and reach a certain steady-state distribution, depending on the resting membrane potential. Test and reference compounds were stored as DMSO stock solutions and diluted in dPBS-DiBAC solution to the desired concentration.
Fluorescence intensity (Ex.: 485 nm/Em.: 520 nm) of each well was detected in the plate reader (Fluostar, BMG) every 60 seconds. After recording the baseline fluorescence for 7 minutes, 20 μl test- and reference compounds were added and the fluorescence intensity was detected for additional 15 minutes. Background was subtracted, data values were normalized and expressed as a change in fluorescence intensity against time. The change in fluorescence intensity caused by the test compounds was evaluated, compared to the effect of the reference compound NS004, and the ratio was determined (see Table I).

Sequence of BK channels (CHO cells permanently transfected with cloned hSlo, α-hSlo and β-bSlo) (Q12791 whole entry): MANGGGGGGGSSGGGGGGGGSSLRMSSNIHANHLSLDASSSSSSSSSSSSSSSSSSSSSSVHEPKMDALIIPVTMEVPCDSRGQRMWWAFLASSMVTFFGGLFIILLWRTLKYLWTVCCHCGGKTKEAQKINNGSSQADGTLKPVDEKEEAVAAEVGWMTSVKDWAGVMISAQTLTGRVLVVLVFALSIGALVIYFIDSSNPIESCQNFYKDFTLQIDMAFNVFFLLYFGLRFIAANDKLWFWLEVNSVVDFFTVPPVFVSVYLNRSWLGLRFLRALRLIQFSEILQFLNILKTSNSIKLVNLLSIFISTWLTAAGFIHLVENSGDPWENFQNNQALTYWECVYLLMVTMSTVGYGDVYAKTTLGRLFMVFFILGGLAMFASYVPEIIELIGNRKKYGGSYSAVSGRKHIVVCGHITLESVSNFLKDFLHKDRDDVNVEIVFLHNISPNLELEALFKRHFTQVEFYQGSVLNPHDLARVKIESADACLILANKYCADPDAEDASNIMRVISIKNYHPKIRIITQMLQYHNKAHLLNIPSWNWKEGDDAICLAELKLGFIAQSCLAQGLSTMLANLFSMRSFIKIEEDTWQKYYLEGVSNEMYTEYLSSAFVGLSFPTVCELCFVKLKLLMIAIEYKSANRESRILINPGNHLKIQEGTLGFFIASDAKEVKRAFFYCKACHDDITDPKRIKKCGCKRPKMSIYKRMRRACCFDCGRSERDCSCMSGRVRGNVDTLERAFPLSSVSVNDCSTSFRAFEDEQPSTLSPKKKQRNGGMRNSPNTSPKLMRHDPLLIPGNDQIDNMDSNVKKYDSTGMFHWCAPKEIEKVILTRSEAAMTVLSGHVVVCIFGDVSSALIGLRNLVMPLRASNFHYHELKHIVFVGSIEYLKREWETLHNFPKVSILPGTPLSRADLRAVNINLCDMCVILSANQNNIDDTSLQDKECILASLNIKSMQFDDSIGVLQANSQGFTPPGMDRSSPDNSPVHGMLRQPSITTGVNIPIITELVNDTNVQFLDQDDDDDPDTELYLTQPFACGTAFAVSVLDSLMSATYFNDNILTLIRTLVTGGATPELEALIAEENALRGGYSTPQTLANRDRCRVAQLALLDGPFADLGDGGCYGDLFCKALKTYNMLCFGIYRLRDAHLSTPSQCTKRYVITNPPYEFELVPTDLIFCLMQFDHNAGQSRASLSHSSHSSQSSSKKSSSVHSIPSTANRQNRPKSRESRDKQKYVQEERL
Sequence of BK channels (CHO cells permanently transfected with cloned hSlo, α-hSlo and β-bSlo) (Q28067 whole entry partner): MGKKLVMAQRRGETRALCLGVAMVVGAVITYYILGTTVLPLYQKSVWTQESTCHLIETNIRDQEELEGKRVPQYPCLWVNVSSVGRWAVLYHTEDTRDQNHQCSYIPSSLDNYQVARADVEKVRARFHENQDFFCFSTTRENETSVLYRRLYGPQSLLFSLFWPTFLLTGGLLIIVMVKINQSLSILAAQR

Compound | Em effect
COc1cc2c(c(OC)c1)C(c1ccc(O)cc1)N(C(=O)c1ccc(-c3ccccc3)cc1)CC2 (centres unmarked) [Compound 15, Biphenyl-4-yl-[1-(4-hydroxy-phenyl)-6,8-dimethoxy-3,4-dihydro-1H-isoquinolin-2-yl]-methanone] | + (0-1=+)
COc1cc2c(c(OC)c1)C(c1ccc(O)cc1)N(C(=O)c1cnc3ccccc3n1)CC2 (centres unmarked) [Compound 16, [1-(4-Hydroxy-phenyl)-6,8-dimethoxy-3,4-dihydro-1H-isoquinolin-2-yl]-quinoxalin-2-yl-methanone] | + (0-1=+)
COc1cc2c(c(OC)c1)C(c1ccc(O)cc1)N(C(=O)c1cccc3ccccc13)CC2 (centres unmarked) [Compound 17, [1-(4-Hydroxy-phenyl)-6,8-dimethoxy-3,4-dihydro-1H-isoquinolin-2-yl]-naphthalen-1-yl-methanone] | + (0-1=+)
COc1cc2c(c(OC)c1)C(c1ccc(O)cc1)N(C(=O)c1cccc(C(F)(F)F)c1)CC2 (centres unmarked) [Compound 18, [1-(4-Hydroxy-phenyl)-6,8-dimethoxy-3,4-dihydro-1H-isoquinolin-2-yl]-(3-trifluoromethyl-phenyl)-methanone] | + (0-1=+)
COc1cc2c(c(OC)c1)C(c1ccc(O)cc1)N(C(=O)C1CCCC1)CC2 (centres unmarked) [Compound 19, Cyclopentyl-[1-(4-hydroxy-phenyl)-6,8-dimethoxy-3,4-dihydro-1H-isoquinolin-2-yl]-methanone] | + (0-1=+)
COc1cc2c(c(OC)c1)C(c1ccc(O)cc1)N(C(=O)c1ccc(C(F)(F)F)cc1)CC2 (centres unmarked) [Compound 20, [1-(4-Hydroxy-phenyl)-6,8-dimethoxy-3,4-dihydro-1H-isoquinolin-2-yl]-(4-trifluoromethyl-phenyl)methanone] | + (0-1=+)
COc1cc2c(c(OC)c1)C(c1ccc(O)cc1)N(C(=O)CCC1CCCC1)CC2 (centres unmarked) [Compound 21, 3-Cyclopentyl-1-[1-(4-hydroxy-phenyl)-6,8-dimethoxy-3,4-dihydro-1H-isoquinolin-2-yl]-propan-1-one] | +++ (>1.5=+++)
COc1ccc(C(=O)N2CCc3cc(OC)cc(OC)c3C2c2ccc(O)cc2)cc1 (centres unmarked) [Compound 22, [1-(4-Hydroxy-phenyl)-6,8-dimethoxy-3,4-dihydro-1H-isoquinolin-2-yl]-(4-methoxy-phenyl)-methanone] | + (0-1=+)
COc1cc2c(c(OC)c1)C(c1ccc(O)cc1)N(C(=O)CCC1CCCCC1)CC2 (centres unmarked) [Compound 23, 3-Cyclohexyl-1-[1-(4-hydroxy-phenyl)-6,8-dimethoxy-3,4-dihydro-1H-isoquinolin-2-yl]-propan-1-one] | + (0-1=+)
COc1cc2c(c(OC)c1)C(c1ccc(O)cc1)N(C(=O)c1sc3ccccc3c1Cl)CC2 (centres unmarked) [Compound 24, (3-Chloro-benzo[b]thiophen-2-yl)-[1-(4-hydroxy-phenyl)-6,8-dimethoxy-3,4-dihydro-1H-iso-quinolin-2-yl]-methanone] | + (0-1=+)
COc1cc2c(c(OC)c1)C(c1ccc(O)cc1)N(C(=O)c1cccs1)CC2 (centres unmarked) [Compound 25, [1-(4-Hydroxy-phenyl)-6,8-dimethoxy-3,4-dihydro-1H-iso-quinolin-2-yl]-thiophen-2-yl-methanone] | + (0-1=+)
COc1cc2c(c(OC)c1)C(c1ccc(O)cc1)N(C(=O)c1ccc3c(c1)OCO3)CC2 (centres unmarked) [Compound 26, Benzo[1,3]dioxol-5-yl-[1-(4-hydroxy-phenyl)-6,8-dimethoxy-3,4-dihydro-1H-isoquinolin-2-yl]-methanone] | + (0-1=+)
COc1cc2c(c(OC)c1)C(c1ccc(O)cc1)N(C(=O)c1ccno1)CC2 (centres unmarked) [Compound 27, [1-(4-Hydroxy-phenyl)-6,8-dimethoxy-3,4-dihydro-1H-isoquinolin-2-yl]-isoxazol-5-yl-methanone] | + (0-1=+)
COc1cc2c(c(OC)c1)C(c1cccc(OC(F)(F)F)c1)N(C(C)=O)CC2 (centres unmarked) [Compound 29, 1-[6,8-Dimethoxy-1-(3-trifluoromethoxy-phenyl)-3,4-dihydro-1H-isoquinolin-2-yl]-ethanone] | ++ (>1-1.5=++)
COc1ccc(C(=O)N2CCc3cc(OC)cc(OC)c3C2c2cccc(OC(F)(F)F)c2)cc1 (centres unmarked) [Compound 31, [6,8-Dimethoxy-1-(3-trifluoromethoxy-phenyl)-3,4-dihydro-1H-isoquinolin-2-yl]-(4-methoxy-phenyl)-methanone] | + (0-1=+)
COc1cc2c(c(OC)c1)C(c1cccc(OC(F)(F)F)c1)N(C(=O)c1ccc(NC(C)=O)cc1)CC2 (centres unmarked) [Compound 32, N-{4-[6,8-Dimethoxy-1-(3-trifluoro-methoxy-phenyl)-3,4-dihydro-1H-isoquinoline-2-carbonyl]-phenyl}-acetamide] | + (0-1=+)
COc1cc2c(c(OC)c1)C(c1cccc(OC(F)(F)F)c1)N(S(=O)(=O)c1cc(C(F)(F)F)ccc1[N+](=O)[O-])CC2 (centres unmarked) [Compound 34, 6,8-Dimethoxy-2-(2-nitro-5-trifluoromethyl-benzenesulfonyl)-1-(3-trifluoromethoxy-phenyl)-1,2,3,4-tetrahydro-isoquinoline] | + (0-1=+)
COc1cc2c(c(OC)c1)C(c1cccc(OC(F)(F)F)c1)N(S(=O)(=O)c1cc(C(F)(F)F)cc(C(F)(F)F)c1)CC2 (centres unmarked) [Compound 35, 2-(3,5-Bis-trifluoromethyl-benzenesulfonyl)-6,8-dimethoxy-1-(3-trifluoromethoxy-phenyl)-1,2,3,4-tetrahydroisoquinoline] | + (0-1=+)
COc1cc2c(c(OC)c1)C(C)N(S(=O)(=O)c1cc(C(F)(F)F)cc(C(F)(F)F)c1)CC2 (centres unmarked) [Compound 37, 2-(3,5-Bis-trifluoromethyl-benzenesulfonyl)-6,8-dimethoxy-1-methyl-1,2,3,4-tetra-hydroisoquinoline] | + (0-1=+)
COc1cc2c(c(OC)c1)C(C)N(C(=O)c1cccc([N+](=O)[O-])c1)CC2 (centres unmarked) [Compound 38, (6,8-Dimethoxy-1-methyl-3,4-dihydro-1H-isoquinolin-2-yl)-(3-nitro-phenyl)-methanone] | + (0-1=+)
COc1cc2c(c(OC)c1)C(C)N(C(=O)c1ccc(OC(F)(F)F)cc1)CC2 (centres unmarked) [Compound 39, (6,8-Dimethoxy-1-methyl-3,4-dihydro-1H-isoquinolin-2-yl)-(4-trifluoro-methoxy-phenyl)-methanone] | + (0-1=+)
COc1ccc(C(=O)N2CCc3cc(OC)cc(OC)c3C2C)cc1 (centres unmarked) [Compound 40, (6,8-Dimethoxy-1-methyl-3,4-dihydro-1H-isoquinolin-2-yl)-(4-methoxy-phenyl)-methanone] | + (0-1=+)
(3,5-Bis-trifluoromethoxy-phenyl)-[6,8-dimethoxy-1-(3-trifluoromethoxy-phenyl)-3,4-dihydro-1H-iso-quinolin-2-yl]-methanone [Compound 33] | + (0-1=+)
